Data: patent US8975398B2, “NAMPT inhibitors” (AbbVie Inc., priority 2012, dated 2015)

Legend:
NAMPT = NAMPT (Homo sapiens, UniProt P43490); assay: Time-Resolved Fluorescence Resonance Energy Transfer (TR-FRET) Binding Assay of NAMPT with PRPP; conditions: 2 nM NAMPT, 2 nM probe, 200 uM PRPP and 2.5 mM ATP, equilibrated 16 hours
How it was run: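 Final mix: 2 nM NAMPT, 2 nM probe, 1 nM Tb-anti-His antibody, 200 uM PRPP, 2.5 mM ATP, 2% DMSO in 1× assay buffer. Equilibrated 16 hours before TR-FRET read, allowing possible enzymatic modification of compounds.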

[1] = molecular target: NAMPT (human, recombinant, C-terminally His-tagged) (Homo sapiens, UniProt P43490); assay: Time-Resolved Fluorescence Resonance Energy Transfer (TR-FRET) Binding Assay of NAMPT; conditions: 6.8 nM NAMPT, 200 nM probe, equilibrated 3 hours, absence of substrates
NAMPT (human, recombinant, C-terminally His-tagged), sequence (P43490 whole entry): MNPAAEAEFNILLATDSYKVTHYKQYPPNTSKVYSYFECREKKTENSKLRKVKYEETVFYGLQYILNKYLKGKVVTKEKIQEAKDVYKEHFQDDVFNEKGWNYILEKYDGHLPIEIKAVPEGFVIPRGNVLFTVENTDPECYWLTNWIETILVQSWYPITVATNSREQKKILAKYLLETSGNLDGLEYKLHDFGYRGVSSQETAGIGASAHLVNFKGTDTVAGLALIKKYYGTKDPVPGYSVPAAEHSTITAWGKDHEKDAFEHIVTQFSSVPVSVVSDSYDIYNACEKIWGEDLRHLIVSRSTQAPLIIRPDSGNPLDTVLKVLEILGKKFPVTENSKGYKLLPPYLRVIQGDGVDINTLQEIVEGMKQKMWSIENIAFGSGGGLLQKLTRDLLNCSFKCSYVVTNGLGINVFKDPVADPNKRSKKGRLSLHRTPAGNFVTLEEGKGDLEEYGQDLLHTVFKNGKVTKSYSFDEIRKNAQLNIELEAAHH
How it was run: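 Recombinant C-terminally His-tagged human NAMPT (6.8 nM) incubated 3 h at room temperature with 200 nM Oregon Green 488–labelled nicotinamide-competitive probe and 1 nM Tb-anti-His antibody in HEPES pH 7.5, 2% DMSO. TR-FRET ratio Em520/Em495 normalized to controls; IC50 from four-parameter logistic fit.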

NAMPT, sequence (P43490 whole entry): as above

With O=C(Nc1ccc(C2CCN(C(=O)C3(c4ccccc4)CC3)CC2)cc1)C1CN(c2cccnn2)C1 [Example 381, N-(4-{1-[(1-phenylcyclopropyl)carbonyl]piperidin-4-yl}phenyl)-1-(pyridazin-3-yl)azetidine-3-carboxamide] the IC50 (NAMPT) was 0.00113 µM and the IC50 [1] was 0.0151 µM.
For Cc1ncccc1N1CC(C(=O)Nc2ccc(C3CCN(C(=O)c4ccsc4)CC3)cc2)C1 [Example 169, 1-(2-methylpyridin-3-yl)-N-{4-[1-(thiophen-3-ylcarbonyl)piperidin-4-yl]phenyl}azetidine-3-carboxamide], the IC50 (NAMPT) was 0.0679 µM and the IC50 [1] was 0.0337 µM.
Work on CC1CC1C(=O)N1CCC(c2ccc(NC(=O)C3CN(c4cccnc4)C3)cc2)CC1 (centres unmarked) [Example 102, N-(4-{1-[(2-methylcyclopropyl)carbonyl]piperidin-4-yl}phenyl)-1-(pyridin-3-yl)azetidine-3-carboxamide] yielded an IC50 (NAMPT) of 0.00021 µM and an IC50 [1] of 0.00884 µM.
COCCOCC(=O)N1CCC(c2ccc(NC(=O)C3CN(c4cccnn4)C3)cc2)CC1 [Example 335, N-(4-{1-[(2-methoxyethoxy)acetyl]piperidin-4-yl}phenyl)-1-(pyridazin-3-yl)azetidine-3-carboxamide] showed an IC50 (NAMPT) of 0.00102 µM and an IC50 [1] of 0.21 µM.
CC(C)CCC(=O)N1CCC(c2ccc(NC(=O)C3CN(c4cccnc4)C3)cc2)CC1 [Example 116, N-{4-[1-(4-methylpentanoyl)piperidin-4-yl]phenyl}-1-(pyridin-3-yl)azetidine-3-carboxamide] was tested, and the IC50 (NAMPT) was 0.000204 µM and the IC50 [1] was 0.0265 µM.
O=C(Nc1ccc(OC2CCN(C(=O)c3ccc(C(F)(F)F)cc3)CC2)cc1)C1CN(c2ccnnc2)C1 [Example 287, 1-(pyridazin-4-yl)-N-[4-({1-[4-(trifluoromethyl)benzoyl]piperidin-4-yl}oxy)phenyl]azetidine-3-carboxamide] was tested, and the IC50 (NAMPT) was 0.0632 µM and the IC50 [1] was 0.125 µM.
COc1ccccc1C(=O)N1CCC(c2ccc(NC(=O)C3CN(c4cccnn4)C3)cc2)CC1 [Example 345, N-{4-[1-(2-methoxybenzoyl)piperidin-4-yl]phenyl}-1-(pyridazin-3-yl)azetidine-3-carboxamide] was tested, and the IC50 (NAMPT) was 0.000392 µM and the IC50 [1] was 0.00954 µM.
Work on O=C(Nc1ccc(OC2CCN(C(=O)c3ccccc3Cl)CC2)cc1)C1CN(c2ccnnc2)C1 [Example 279, N-(4-{[1-(2-chlorobenzoyl)piperidin-4-yl]oxy}phenyl)-1-(pyridazin-4-yl)azetidine-3-carboxamide] yielded an IC50 (NAMPT) of 0.0155 µM and an IC50 [1] of 0.0202 µM.
O=C(Nc1ccc(C2CCN(C(=O)CCC(F)(F)F)CC2)cc1)C1CN(c2cccnc2)C1 [Example 112, 1-(pyridin-3-yl)-N-{4-[1-(4,4,4-trifluorobutanoyl)piperidin-4-yl]phenyl}azetidine-3-carboxamide] showed an IC50 (NAMPT) of 0.000362 µM and an IC50 [1] of 0.0402 µM.
Molecule O=C(Nc1ccc(OC2CCN(C(=O)Cc3ccc(C(F)(F)F)cc3)CC2)cc1)C1CN(c2cccnn2)C1 [Example 220, 1-(pyridazin-3-yl)-N-{4-[(1-{[4-(trifluoromethyl)phenyl]acetyl}piperidin-4-yl)oxy]phenyl}azetidine-3-carboxamide] has an IC50 (NAMPT) of 0.00101 µM and an IC50 [1] of 0.267 µM.
CCC(C)CC(=O)N1CCC(c2ccc(NC(=O)C3CN(c4cccnn4)C3)cc2)CC1 (centres unmarked) [Example 323, N-{4-[1-(3-methylpentanoyl)piperidin-4-yl]phenyl}-1-(pyridazin-3-yl)azetidine-3-carboxamide] was tested, and the IC50 (NAMPT) was 0.000885 µM and the IC50 [1] was 0.0253 µM.
Cc1ccc(C(=O)N2CCC(c3ccc(NC(=O)C4CN(c5cccnn5)C4)cc3)CC2)s1 [Example 377, N-(4-{1-[(5-methylthiophen-2-yl)carbonyl]piperidin-4-yl}phenyl)-1-(pyridazin-3-yl)azetidine-3-carboxamide] showed an IC50 (NAMPT) of 0.000632 µM and an IC50 [1] of 0.0162 µM.
CC(C)C(=O)N1CCC(Oc2ccc(NC(=O)C3CN(c4cccnn4)C3)cc2)CC1 [Example 253, N-(4-{[1-(2-methylpropanoyl)piperidin-4-yl]oxy}phenyl)-1-(pyridazin-3-yl)azetidine-3-carboxamide] was tested, and the IC50 (NAMPT) was 0.000639 µM and the IC50 [1] was 0.134 µM.
Molecule CC(C)(C)CC(=O)N1CCC(c2ccc(NC(=O)C3CN(c4cccnc4)C3)cc2)CC1 [Example 132, N-{4-[1-(3,3-dimethylbutanoyl)piperidin-4-yl]phenyl}-1-(pyridin-3-yl)azetidine-3-carboxamide] has an IC50 (NAMPT) of 0.000441 µM and an IC50 [1] of 0.00846 µM.
In the case of O=C(Nc1ccc(C2CCN(CC3CCCCC3)CC2)cc1)C1CN(c2cccnc2)C1 [Example 86, N-{4-[1-(cyclohexylmethyl)piperidin-4-yl]phenyl}-1-(pyridin-3-yl)azetidine-3-carboxamide], the IC50 (NAMPT) is reported as 0.000833 µM and the IC50 [1] is reported as 1.26 µM.
With O=C(Nc1ccc(OC2CCN(C(=O)CC(F)(F)F)CC2)cc1)C1CN(c2cccnn2)C1 [Example 252, 1-(pyridazin-3-yl)-N-(4-{[1-(3,3,3-trifluoropropanoyl)piperidin-4-yl]oxy}phenyl)azetidine-3-carboxamide] the IC50 (NAMPT) was 0.0011 µM and the IC50 [1] was 0.238 µM.
In the case of CC(C)(C)CC(=O)N1CCC(Oc2ccc(NC(=O)C3CN(c4ccnnc4)C3)cc2)CC1 [Example 260, N-(4-{[1-(3,3-dimethylbutanoyl)piperidin-4-yl]oxy}phenyl)-1-(pyridazin-4-yl)azetidine-3-carboxamide], the IC50 (NAMPT) is reported as 0.019 µM and the IC50 [1] is reported as 0.0754 µM.
Work on CC(C)(C)C(=O)N1CCC(Oc2ccc(NC(=O)C3CN(c4cccnc4)C3)cc2)CC1 [Example 42, N-(4-{[1-(2,2-dimethylpropanoyl)piperidin-4-yl]oxy}phenyl)-1-(pyridin-3-yl)azetidine-3-carboxamide] yielded an IC50 (NAMPT) of 0.00239 µM and an IC50 [1] of 0.226 µM.
CC(C)(O)C(=O)N1CCC(Oc2ccc(NC(=O)C3CN(c4cccnc4)C3)cc2)CC1 [Example 31, N-(4-{[1-(2-hydroxy-2-methylpropanoyl)piperidin-4-yl]oxy}phenyl)-1-(pyridin-3-yl)azetidine-3-carboxamide] was tested, and the IC50 (NAMPT) was 0.000693 µM and the IC50 [1] was 0.135 µM.
CC[C@H](C)C(=O)N1CCC(Oc2ccc(NC(=O)C3CN(c4ccnnc4)C3)cc2)CC1 [Example 307, N-[4-({1-[(2S)-2-methylbutanoyl]piperidin-4-yl}oxy)phenyl]-1-(pyridazin-4-yl)azetidine-3-carboxamide] showed an IC50 (NAMPT) of 0.0159 µM and an IC50 [1] of 0.0377 µM.
With O=C(Nc1ccc(C2CCN(C(=O)c3ccccc3O)CC2)cc1)C1CN(c2cccnn2)C1 [Example 342, N-{4-[1-(2-hydroxybenzoyl)piperidin-4-yl]phenyl}-1-(pyridazin-3-yl)azetidine-3-carboxamide] the IC50 (NAMPT) was 0.000698 µM and the IC50 [1] was 0.0131 µM.
Work on CCC(CC)C(=O)N1CCC(c2ccc(NC(=O)C3CN(c4cccnn4)C3)cc2)CC1 [Example 328, N-{4-[1-(2-ethylbutanoyl)piperidin-4-yl]phenyl}-1-(pyridazin-3-yl)azetidine-3-carboxamide] yielded an IC50 (NAMPT) of 0.000614 µM and an IC50 [1] of 0.0122 µM.
For O=C(Nc1ccc(OC2CCN(C(=O)Cc3cccc(F)c3)CC2)cc1)C1CN(c2ccnnc2)C1 [Example 288, N-[4-({1-[(3-fluorophenyl)acetyl]piperidin-4-yl}oxy)phenyl]-1-(pyridazin-4-yl)azetidine-3-carboxamide], the IC50 (NAMPT) was 0.0195 µM and the IC50 [1] was 0.0449 µM.
COc1cccc(C(=O)N2CCC(c3ccc(NC(=O)C4CN(c5cccnn5)C4)cc3)CC2)c1 [Example 346, N-{4-[1-(3-methoxybenzoyl)piperidin-4-yl]phenyl}-1-(pyridazin-3-yl)azetidine-3-carboxamide] was tested, and the IC50 (NAMPT) was 0.000457 µM and the IC50 [1] was 0.0308 µM.
Molecule CC(C)CC(=O)N1CCC(Oc2ccc(NC(=O)C3CN(c4cccnc4)C3)cc2)CC1 [Example 45, N-(4-{[1-(3-methylbutanoyl)piperidin-4-yl]oxy}phenyl)-1-(pyridin-3-yl)azetidine-3-carboxamide] has an IC50 (NAMPT) of 0.00108 µM and an IC50 [1] of 0.0873 µM.
Work on CC(C)(O)C(=O)N1CCC(c2ccc(NC(=O)[C@H]3CCN(c4ccnnc4)C3)cc2)CC1 [Example 141, (3S)—N-{4-[1-(2-hydroxy-2-methylpropanoyl)piperidin-4-yl]phenyl}-1-(pyridazin-4-yl)pyrrolidine-3-carboxamide] yielded an IC50 (NAMPT) of 0.0752 µM and an IC50 [1] of 1.24 µM.
Work on CC(C)(C)C(=O)N1CCC(c2ccc(NC(=O)C3CN(c4cccnc4)C3)cc2)CC1 [Example 125, N-{4-[1-(2,2-dimethylpropanoyl)piperidin-4-yl]phenyl}-1-(pyridin-3-yl)azetidine-3-carboxamide] yielded an IC50 (NAMPT) of 0.000518 µM and an IC50 [1] of 0.0154 µM.
For O=C(Nc1ccc(OC2CCN(CC3CC3)CC2)cc1)C1CN(c2cccnc2)C1 [Example 74, N-(4-{[1-(cyclopropylmethyl)piperidin-4-yl]oxy}phenyl)-1-(pyridin-3-yl)azetidine-3-carboxamide], the IC50 (NAMPT) was 0.000666 µM and the IC50 [1] was 0.911 µM.
O=C(Nc1ccc(C2CCN(C(=O)c3cccs3)CC2)cc1)C1CN(c2cccnc2)C1 [Example 127, 1-(pyridin-3-yl)-N-{4-[1-(thiophen-2-ylcarbonyl)piperidin-4-yl]phenyl}azetidine-3-carboxamide] was tested, and the IC50 (NAMPT) was 0.000391 µM and the IC50 [1] was 0.00364 µM.
CCC(=O)N1CCC(Oc2ccc(NC(=O)C3CN(c4cccnc4)C3)cc2)CC1 [Example 65, N-{4-[(1-propanoylpiperidin-4-yl)oxy]phenyl}-1-(pyridin-3-yl)azetidine-3-carboxamide] gave an IC50 (NAMPT) of 0.000704 µM and an IC50 [1] of 0.121 µM.
Molecule CC(C)C(C)C(=O)N1CCC(c2ccc(NC(=O)C3CN(c4cccnn4)C3)cc2)CC1 (centres unmarked) [Example 326, N-{4-[1-(2,3-dimethylbutanoyl)piperidin-4-yl]phenyl}-1-(pyridazin-3-yl)azetidine-3-carboxamide] has an IC50 (NAMPT) of 0.000626 µM and an IC50 [1] of 0.0183 µM.
